Laboratory results published in patent US7101849B1 (The University of Queensland, priority 1998, dated 2006).

Target: N-type calcium channel (Rattus norvegicus, UniProt Q02294)
Type: binding

N-type calcium channel, sequence (Q02294 whole entry, looked up): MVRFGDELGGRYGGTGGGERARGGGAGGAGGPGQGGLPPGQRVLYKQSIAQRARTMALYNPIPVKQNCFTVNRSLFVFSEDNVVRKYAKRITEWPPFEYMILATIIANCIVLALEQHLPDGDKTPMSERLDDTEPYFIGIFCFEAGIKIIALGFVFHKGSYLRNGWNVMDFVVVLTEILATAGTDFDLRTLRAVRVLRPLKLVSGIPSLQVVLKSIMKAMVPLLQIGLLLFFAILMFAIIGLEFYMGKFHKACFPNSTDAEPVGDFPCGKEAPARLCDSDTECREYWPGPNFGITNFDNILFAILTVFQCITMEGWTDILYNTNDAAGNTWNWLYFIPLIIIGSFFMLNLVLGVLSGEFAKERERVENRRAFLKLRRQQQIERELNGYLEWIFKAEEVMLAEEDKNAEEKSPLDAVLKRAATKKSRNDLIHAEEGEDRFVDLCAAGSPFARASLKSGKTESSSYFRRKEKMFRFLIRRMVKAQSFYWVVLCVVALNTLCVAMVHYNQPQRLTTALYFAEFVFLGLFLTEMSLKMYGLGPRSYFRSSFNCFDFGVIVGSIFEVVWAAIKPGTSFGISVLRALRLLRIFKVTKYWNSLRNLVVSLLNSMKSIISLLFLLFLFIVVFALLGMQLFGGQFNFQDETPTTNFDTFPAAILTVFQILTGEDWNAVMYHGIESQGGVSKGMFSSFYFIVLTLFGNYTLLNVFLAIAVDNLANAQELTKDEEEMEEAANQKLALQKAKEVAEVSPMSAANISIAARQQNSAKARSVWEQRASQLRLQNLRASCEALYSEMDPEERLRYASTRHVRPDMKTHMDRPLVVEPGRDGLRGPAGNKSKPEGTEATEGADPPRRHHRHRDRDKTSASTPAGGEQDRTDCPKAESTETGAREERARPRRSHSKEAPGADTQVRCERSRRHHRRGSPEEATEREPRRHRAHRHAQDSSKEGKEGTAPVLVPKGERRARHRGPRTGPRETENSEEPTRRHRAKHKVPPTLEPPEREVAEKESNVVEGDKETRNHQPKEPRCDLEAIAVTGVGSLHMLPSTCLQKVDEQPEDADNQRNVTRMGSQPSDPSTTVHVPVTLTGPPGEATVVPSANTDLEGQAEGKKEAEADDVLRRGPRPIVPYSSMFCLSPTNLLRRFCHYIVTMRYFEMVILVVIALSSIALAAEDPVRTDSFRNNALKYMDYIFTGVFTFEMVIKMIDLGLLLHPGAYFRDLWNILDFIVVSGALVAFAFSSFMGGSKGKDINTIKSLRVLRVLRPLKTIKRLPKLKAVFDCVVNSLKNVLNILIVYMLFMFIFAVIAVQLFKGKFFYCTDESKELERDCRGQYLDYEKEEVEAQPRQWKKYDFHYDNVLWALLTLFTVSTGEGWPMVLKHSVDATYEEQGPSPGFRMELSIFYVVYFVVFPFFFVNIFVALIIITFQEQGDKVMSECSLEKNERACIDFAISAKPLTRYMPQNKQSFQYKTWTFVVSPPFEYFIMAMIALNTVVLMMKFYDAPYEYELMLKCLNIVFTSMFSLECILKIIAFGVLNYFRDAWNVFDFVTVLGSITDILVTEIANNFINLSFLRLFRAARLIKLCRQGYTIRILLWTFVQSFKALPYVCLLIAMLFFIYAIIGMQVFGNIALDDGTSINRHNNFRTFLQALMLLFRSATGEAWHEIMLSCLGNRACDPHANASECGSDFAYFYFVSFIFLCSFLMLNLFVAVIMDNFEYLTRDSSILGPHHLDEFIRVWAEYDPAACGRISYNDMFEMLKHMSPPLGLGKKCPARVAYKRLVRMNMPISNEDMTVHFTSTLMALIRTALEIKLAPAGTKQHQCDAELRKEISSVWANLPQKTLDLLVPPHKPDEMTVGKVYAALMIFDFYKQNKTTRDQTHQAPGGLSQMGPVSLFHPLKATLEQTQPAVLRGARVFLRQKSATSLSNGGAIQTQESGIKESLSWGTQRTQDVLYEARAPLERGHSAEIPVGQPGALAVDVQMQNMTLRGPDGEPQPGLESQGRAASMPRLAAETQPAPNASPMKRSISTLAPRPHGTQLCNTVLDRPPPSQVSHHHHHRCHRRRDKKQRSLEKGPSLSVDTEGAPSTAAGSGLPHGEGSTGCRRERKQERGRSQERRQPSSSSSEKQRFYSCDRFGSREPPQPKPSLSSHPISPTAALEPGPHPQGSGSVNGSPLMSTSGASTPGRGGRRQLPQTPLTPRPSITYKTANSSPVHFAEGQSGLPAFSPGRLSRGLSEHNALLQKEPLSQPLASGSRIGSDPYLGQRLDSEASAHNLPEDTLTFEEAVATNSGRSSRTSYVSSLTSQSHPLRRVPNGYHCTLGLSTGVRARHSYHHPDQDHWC

## CKSKGAKCDRLMYDCCSGSCSGTVGRC [D^9R^10-CVID]
  potency for N-type calcium channel in receptor binding assays: high potency
  selectivity for N-type calcium channel over P/Q-type calcium channel in receptor binding assays: high selectivity
